Measured values reported in US5872130A, “Quinoline type mevalonoactones” (Nissan Chemical Industries Ltd., priority 1988, dated 1999).

System: cholesterol biosynthesis
Assay: Test A: Inhibition of cholesterol biosynthesis from acetate in vitro (rat liver microsome and sup fraction)
Type: biochemical, male Wistar rat
Conditions: based on the activities of CS-514 being evaluated to be 1
Experimental: Test A: Inhibition of cholesterol biosynthesis from acetate in vitro
Enzyme solution was prepared from liver of male Wistar rat billialy cannulated and discharged bile for over 24 hours. Liver was cut out at mid-dark and microsome and supernatant fraction which was precipitable with 40-80% of saturation of ammonium sulfate (sup fraction) were prepared from liver homogenate according to the modified method of Knauss et al; Kuroda, M, et al, Biochim. Biophys. Acta, 489, 119 (1977). For assay of cholesterol biosynthesis, microsome (0.1 mg protein) and sup fraction (1.0 mg protein) were incubated for 2, hours at 37° C. in 200 μl of the reaction mixture containing ATP; 1 mM, Glutathione; 6 mM, Glucose-1-phosphate; 10 mM, NAD; 0.25 mM, NADP; 0.25 mM, CoA; 0.04 mM and 0.2 mM [2-^14 C]sodium acetate (0.2 μCi) with 4 μl of test compound solution dissolved in water or dimethyl sulfoxide. To stop reaction and saponify, 1 ml of 15% EtOH-KOH was added to the reactions and heated at 75° C. for 1 hour. […] Inhibitory activity of compounds was indicated with IC50.

SMILES | Relative activities by Test A
CCOC(=O)CC(O)CC(O)/C=C/c1c(CC)nc2ccccc2c1-c1ccc(F)cc1 (centres unmarked) [I-117] | 0.37
CC(C)c1nc2c(Cl)cc(Cl)cc2c(-c2ccc(F)cc2)c1/C=C/C(O)CC(O)CC(=O)O (centres unmarked) [I-522] | 0.76
